Source: US5254682A, “Cyclic renin inhibitors containing 3(S)-amino-4-cyclohexyl-2(R)-hydroxy-butanoic acid or 4-cyclo-hexyl-(2R, 3S)-dihydroxybutanoic acid or related analogs” (Merck & Co., Inc., priority 1991, dated 1993)
Where two headings read alike, the source gives them in different places. Where a SMILES comes first, the peptide text is derived from it. [ ]: non-standard residue; d: D form. The star is where a group is joined. Sta = CC(C)C[C@H](N)[C@@H](O)CC(=O)O; Isovaleryl = CC(C)CC(=O)*

How the values were obtained:
[1] = amide bond, 2 steps
[2] = system: sodium-deficient Rhesus monkeys; test: intravenous evaluation of renin inhibitors in conscious sodium-deficient Rhesus monkeys (blood pressure lowering); format: in vivo; conditions: i.v. bolus
Source text: The following methods were used for in vivo evaluation of the renin inhibitors of Formula I: Intravenous evaluation of renin inhibitors in concious sodium-deficient Rhesus monkeys: Rhesus monkeys, male and female, weighing 2.6-4.5 Kg, were surgically prepared with chronic arterial and venous catheters and vascular access ports for direct monitoring of mean arterial pressure (MAP) and heart rate (HR). The animals were maintained on a low sodium diet (1.2 mmol Na/day) plus fruit for a week, and administered LASIX (furosemide) at 2.5 mg/Kg, intramuscularly the evening prior to the experiment. The animals had been trained to sit quietly in the chairs with water ad libium for the duration of the experiment. The inhibitors were administered by bolus injection using 0.5% acetic acid-5% dextrose in water as the vehicle (0.4 ml/Kg), and MAP and HR were measured. Blood samples were withdrawn at different time intervals beginning at the nadir of hypotensive response. PRA was determined as described above. […] A projected ED50 dose for each inhibitor was calculated using the following formula: ED50 (Test Inhibitor, umoles/Kg)=ED50 (SCRIP) X [IC50 (Test Inhibitor)/IC50 (SCRIP)], where the IC50 values were determined against human plasma renin. […] Percent inhibition of monkey PRA, changes in MAP and HR were calculated and plotted against time. […]

## O=C(N[C@H]1CSCCC[C@H](CN2CCOCC2)OC(=O)[C@H](O)[C@H](CC2CCCCC2)NC1=O)OCc1ccccc1
[1]; from N[C@@H](CC1CCCCC1)[C@@H](O)C(=O)O[C@H](CCCSC[C@H](NC(=O)OCc1ccccc1)C(=O)O)CN1CCOCC1
  ring closure, yield of all isomers: 38%

## O=C1CC[C@H](NC(=O)OCc2ccccc2)C(=O)N[C@@H](CC2CCCCC2)[C@@H](O)C(=O)OC(CN2CCOCC2)CO1 (stereo partly shown)
[1]; from CC(C)(C)OC(=O)[C@H](CCC(=O)OCC(CN1CCOCC1)OC(=O)[C@@H]1OC(C)(C)N(C(=O)OC(C)(C)C)[C@H]1CC1CCCCC1)NC(=O)OCc1ccccc1, THF
  ring closure, yield of all isomers: 32%

## CC(C)(C)OC(=O)N[C@H]1CNC(=O)CCCCOC(=O)[C@H](O)[C@H](CC2CCCCC2)NC1=O
[1]; from CC(C)(C)OC(=O)N[C@@H](CNC(=O)OCc1ccccc1)C(=O)N[C@@H](CC1CCCCC1)[C@@H](O)C(=O)OCCCCC(=O)OCc1ccccc1, DPPA, triethylamine
  ring closure, yield of all isomers: 27%

## O=C(N[C@H]1CSCCCCOC(=O)[C@H](O)[C@H](CC2CCCCC2)NC1=O)OCc1ccccc1
[1]; from N[C@@H](CC1CCCCC1)[C@@H](O)C(=O)OCCCCSC[C@H](NC(=O)OCc1ccccc1)C(=O)O
  ring closure, yield of all isomers: 34%

## CC1CC(=O)NCCOC(=O)[C@H](O)[C@H](CC2CCCCC2)NC(=O)[C@H]1NC(=O)OCc1ccccc1 (stereo partly shown)
[1]; from CC(CC(=O)NCCOC(=O)[C@@H]1OC(C)(C)N(C(=O)OC(C)(C)C)[C@H]1CC1CCCCC1)[C@H](NC(=O)OCc1ccccc1)C(=O)OCC[Si](C)(C)C
  ring closure, yield of all isomers: 62%

## O=C1CC[C@H](NC(=O)OCc2ccccc2)C(=O)N[C@@H](CC2CCCCC2)[C@@H](O)C(=O)OC(CN2CCOCC2)CN1 (stereo partly shown)
[1]; from CC(C)(C)OC(=O)[C@H](CCC(=O)NCC(CN1CCOCC1)OC(=O)[C@@H]1OC(C)(C)N(C(=O)OC(C)(C)C)[C@H]1CC1CCCCC1)NC(=O)OCc1ccccc1
  ring closure, yield of all isomers: 61%

## CCCCC1CNC(=O)CC[C@H](NC(=O)OCc2ccccc2)C(=O)N[C@@H](CC2CCCCC2)[C@@H](O)C(=O)O1 (stereo partly shown)
[1]; from CCCCC(CNC(=O)CC[C@H](NC(=O)OCc1ccccc1)C(=O)OC(C)(C)C)OC(=O)[C@@H]1OC(C)(C)N(C(=O)OC(C)(C)C)[C@H]1CC1CCCCC1, EDC/HOBt
  ring closure, yield of all isomers: 54%

## CC(C)(C)OC(=O)N[C@H]1CCC(=O)NCCCC2(OCCO2)[C@H](O)[C@H](CC2CCCCC2)NC1=O
[1]; from CC(C)(C)OC(=O)N[C@@H](CCC(=O)OCc1ccccc1)C(=O)N[C@@H](CC1CCCCC1)[C@@H](O)C1(CCCN=[N+]=[N-])OCCO1, DPPA, triethylamine
  ring closure, yield of all isomers: 30%

## CC(C)CC(=O)N[C@@H](Cc1c[nH]cn1)C(=O)N1CCC[C@H]1C(=O)N[C@@H](Cc1ccccc1)C(=O)N[C@@H](Cc1c[nH]cn1)C(=O)N[C@@H](CC(C)C)[C@@H](O)CC(=O)N[C@@H](CC(C)C)C(=O)N[C@@H](Cc1ccccc1)C(N)=O [SCRIP, Iva-His-Pro-Phe-His-Sta-Leu-Phe-NH2] (Isovaleryl-HPFH[Sta]LF-NH2)
[2]
  ED50 (i.v. dose required to lower blood pressure by 50% of the maximal response): 0.039 µmol/kg

## CC(C)CC1CNC(=O)CC[C@H](NC(=O)OCc2ccccc2)C(=O)N[C@@H](CC2CCCCC2)[C@@H](O)C(=O)O1 (stereo partly shown)
[1]; from CC(C)CC(CNC(=O)CC[C@H](NC(=O)OCc1ccccc1)C(=O)OC(C)(C)C)OC(=O)[C@@H]1OC(C)(C)N(C(=O)OC(C)(C)C)[C@H]1CC1CCCCC1, THF
  ring closure, yield of all isomers: 51%
